For two compounds, IC50 results are on record in ChEMBL document CHEMBL4152183, “Anti-inflammatory effects of flavonoids in neurodegenerative disorders” (Eur J Med Chem, 2018).

pIC50: −log10 of the molar value.

This experiment deals with BV-2. Description: Antiinflammatory activity in mouse BV2 cells assessed as inhibition of LPS-induced nitric oxide production pretreated for 1 hr followed by LPS addition and measured after 24 hrs by Griess assay. In kind it is functional, cell-based.

In the case of `O=C(/C=C/c1ccc(O)c(O)c1)c1ccc(O)cc1O` [BUTEIN], the negative logarithm of the IC50 (pIC50) is 4.96.
For `O=c1c(O)c(-c2ccc(O)c(O)c2)oc2cc(O)ccc12` [FISETIN] the value was 4.87.

The term pIC50 denotes the negative decadic logarithm of the IC50, by convention in mol/L.
